This data set is described as follows: Oxidative stability of salmon oil, induction period in weight increase experiment. Conditions: salmon oil from fresh raw materials, antioxidant added to oil, versus control oil without additions.

“Also recorded” adds a separate entry of the source.

Procedure: The oil stability was measured as the induction period (in days) in weight increase experiment. Oil A is salmon oil with 200 ppm d-α-tocopherol. Oil E is the control without additions.
To a sample of fresh fish oil prepared by gentle processing of fresh salmon filleting by-products (viscera, heads, framebones), we added 200 ppm vitamin E consisting of 89-99% d-α-tocopherol and 1-11% (β+γ+δ)-tocopherols (according to product specification), and a mixture of other/synergistic.
To another sample of the oil, we added 200 ppm vitamin E consisting of 14% d-α-tocopherol, 1% d-β-tocopherol, 62% d-γ-tocopherol and 23% d-δ-tocopherol, and a mixture of other/synergistic antioxidants similar to what was given to the first sample.
The oxidative stability of the three oils were tested by subjecting 3.0 g samples in 6.0 cm glass petri dishes to a temperature of 35° C. while exposed to air. The oxygen uptake caused by oxidation was recorded as a rapid weight increase of the samples when their antioxidative resistance was broken down, after an initial induction time (IP).

In the case of `Cc1c(C)c2c(c(C)c1O)CC[C@@](C)(CCC[C@H](C)CCC[C@H](C)CCCC(C)C)O2` [d-α-tocopherol], the “oil stability measured as induction period” value is “weakly prooxidant effects; also recorded: did not increase stability, but gave instead a small prooxidant effect”.

The record behind these values is US20060165840A1, “Fish feed” (Norsk Hydro ASA, priority 2002, published 2006).
